Results on twelve compounds are retold here after patent US9481676B2, “Azepino[4,5-B]indoles and methods of use” (Medivation Technologies, Inc., priority 2008, dated 2016).

Each structure is given as a SMILES string.

By inhibition is commonly meant the change of the read-out against control, counted positive when it falls.

This assay has as its target T1, human recombinant serotonin (5-Hydroxytryptamine) 5-HT2C receptor (Homo sapiens, UniProt P28335).
T1 construct: expressed in transfected cells; host or cells: CHO-K1 cells
T1 sequence (P28335 33-458): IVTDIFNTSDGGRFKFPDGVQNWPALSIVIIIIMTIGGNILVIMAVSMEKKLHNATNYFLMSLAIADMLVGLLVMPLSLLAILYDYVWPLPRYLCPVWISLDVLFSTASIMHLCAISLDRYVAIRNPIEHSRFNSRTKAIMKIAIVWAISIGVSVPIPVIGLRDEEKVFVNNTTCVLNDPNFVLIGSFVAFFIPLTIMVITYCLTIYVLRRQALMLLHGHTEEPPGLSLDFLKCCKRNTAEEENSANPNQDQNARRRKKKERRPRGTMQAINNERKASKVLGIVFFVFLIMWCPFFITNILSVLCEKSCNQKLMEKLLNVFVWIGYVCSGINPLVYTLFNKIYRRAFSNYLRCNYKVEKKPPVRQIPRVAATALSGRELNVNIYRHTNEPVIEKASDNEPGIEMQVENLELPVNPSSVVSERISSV
Briefly: Serotonin 5-HT2C radioligand binding ([3H]Mesulergine). Particulars: compound at 1 μM; read-out: Serotonin (1 μM) 5-HT2C, percent inhibition of specific binding. An outline of the steps: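 Membranes from CHO-K1 cells expressing human 5-HT2C, incubated with 1 nM [3H]mesulergine for 60 min at 25 °C in 50 mM Tris-HCl pH 7.4 with ascorbic acid and pargyline.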
For `CN1CCc2c(n(CC(=O)N3CCOCC3)c3ccc(Cl)cc23)CC1` [Compound No. 60, 2-(9-chloro-2,3,4,5-tetrahydro-3-methylazepino[4,5-b]indol-6(1H)-yl)-1-morpholinoethanone], the inhibition at 1 µM is -5%.
To `Cc1ccc2c(c1)c1c(n2CCc2ccc(C(F)(F)F)nc2)CCN(C)CC1` [Compound No. 20, 6-(2-(6-(trifluoromethyl)pyridin-3-yl)ethyl)-1,2,3,4,5,6-hexahydro-3,9-dimethylazepino[4,5-b]indole] belongs 77%.
As for `CN1CCc2c(n(CCc3cncc(Cl)c3)c3ccc(Cl)cc23)CC1` [Compound No. 10, 9-chloro-6-(2-(5-chloropyridin-3-yl)ethyl)-1,2,3,4,5,6-hexahydro-3-methylazepino[4,5-b]indole], the figure is 92%.
Take `Cc1ccc2c(c1)c1c(n2CC(=O)N2CCCC2)CCN(C)CC1` [Compound No. 45, 2-(2,3,4,5-tetrahydro-3,9-dimethylazepino[4,5-b]indol-6(1H)-yl)-1-(pyrrolidin-1-yl)ethanone]: the inhibition at 1 µM stood at 16%.
As for `Cc1ccc2c(c1)c1c(n2CCc2ccc(C(=O)O)nc2)CCN(C)CC1` [Compound No. 11, 5-(2-(2,3,4,5-tetrahydro-3,9-dimethylazepino[4,5-b]indol-6(1H)-yl)ethyl)pyridine-2-carboxylic acid], the figure is 34%; as for `CN1CCc2c(n(C#Cc3ccc(F)cc3)c3ccc(Cl)cc23)CC1` [Compound No. 281, 9-chloro-6-((4-fluorophenyl)ethynyl)-3-methyl-1,2,3,4,5,6-hexahydroazepino[4,5-b]indole], 98%.
To `CN1CCc2c(n(CC(=O)N3CCCC3)c3ccc(Cl)cc23)CC1` [Compound No. 53, 2-(9-chloro-2,3,4,5-tetrahydro-3-methylazepino[4,5-b]indol-6(1H)-yl)-1-(pyrrolidin-1-yl)ethanone] belongs 32%.
Take `CN1CCc2c(n(CC(O)c3ccncc3)c3ccc(Cl)cc23)CC1` (stereo not drawn) [Compound No. 42, 2-(9-chloro-2,3,4,5-tetrahydro-3-methylazepino[4,5-b]indol-6(1H)-yl)-1-(pyridin-4-yl)ethanol]: the inhibition at 1 µM turned out to be 101%.
Take `COc1ccc(C(O)Cn2c3c(c4cc(Cl)ccc42)CCN(C)CC3)cc1F` (stereo not drawn) [Compound No. 67, 2-(9-chloro-2,3,4,5-tetrahydro-3-methylazepino[4,5-b]indol-6(1H)-yl)-1-(3-fluoro-4-methoxyphenyl) ethanol]: the inhibition at 1 µM came to 93%.
To `CN1CCc2c(n(/C=C/c3ccc(F)c(F)c3)c3ccc(Cl)cc23)CC1` [Compound No. 236, (E)-9-chloro-6-(3,4-difluorostyryl)-3-methyl-1,2,3,4,5,6-hexahydroazepino[4,5-b]indole] belongs 100%.
To `COc1ccc(/C=C/n2c3c(c4cc(C)ccc42)CCN(C)CC3)c(F)c1` [Compound No. 230, (E)-6-(2-fluoro-4-methoxystyryl)-3,9-dimethyl-1,2,3,4,5,6-hexahydroazepino[4,5-b]indole] belongs 96%.
Regarding `Cc1ccc2c(c1)c1c(n2CC(=O)N2CCCCC2)CCN(C)CC1` [Compound No. 32, 2-(2,3,4,5-tetrahydro-3,9-dimethylazepino[4,5-b]indol-6(1H)-yl)-1-(piperidin-1-yl)ethanone], the inhibition at 1 µM stood at 48%.
